The values that follow come from patent US20240043403A1, “HETEROARYL CARBOXAMIDE COMPOUND” (Astellas Pharma Inc., priority 2020, published 2024).

Usually IC50 stands for the concentration at which inhibition is half-maximal.

Structures can show the parent of a compound that is named as a salt.

human recombinant DGK ξ, sequence (Q13574 whole entry): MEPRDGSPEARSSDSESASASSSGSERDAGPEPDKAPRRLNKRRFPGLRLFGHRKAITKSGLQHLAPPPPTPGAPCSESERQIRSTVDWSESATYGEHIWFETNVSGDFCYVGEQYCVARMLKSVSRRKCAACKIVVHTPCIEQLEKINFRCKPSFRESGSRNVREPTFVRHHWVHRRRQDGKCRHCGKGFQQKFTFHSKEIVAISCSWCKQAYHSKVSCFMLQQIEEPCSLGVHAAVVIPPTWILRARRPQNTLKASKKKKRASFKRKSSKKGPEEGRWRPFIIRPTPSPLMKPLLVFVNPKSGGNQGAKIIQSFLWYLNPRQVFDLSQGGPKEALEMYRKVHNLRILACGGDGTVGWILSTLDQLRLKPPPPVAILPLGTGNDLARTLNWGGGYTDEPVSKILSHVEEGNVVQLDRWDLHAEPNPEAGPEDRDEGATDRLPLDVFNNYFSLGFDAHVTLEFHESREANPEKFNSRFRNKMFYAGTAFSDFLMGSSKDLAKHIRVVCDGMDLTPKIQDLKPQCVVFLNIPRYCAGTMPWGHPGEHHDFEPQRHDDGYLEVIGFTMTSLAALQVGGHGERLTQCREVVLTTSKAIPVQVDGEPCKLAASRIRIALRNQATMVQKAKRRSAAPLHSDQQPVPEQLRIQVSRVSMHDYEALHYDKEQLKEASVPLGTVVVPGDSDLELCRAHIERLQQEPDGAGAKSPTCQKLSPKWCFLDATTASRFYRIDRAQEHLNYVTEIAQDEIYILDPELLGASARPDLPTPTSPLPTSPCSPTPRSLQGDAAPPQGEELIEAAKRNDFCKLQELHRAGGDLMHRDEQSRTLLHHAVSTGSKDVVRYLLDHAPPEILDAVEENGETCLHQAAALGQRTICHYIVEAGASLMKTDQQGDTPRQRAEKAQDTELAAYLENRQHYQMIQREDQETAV

The assay concerns the target human recombinant DGK ξ (Homo sapiens (Human), UniProt Q13574). The experiment in a line: Evaluation of DGK ξ inhibitory effect (ADP-Glo Kinase Assay). The format is biochemical. The conditions noted are these: ADP-Glo luminescence. Here is the method:
Test Example 1. Evaluation of DGK ξ Inhibitory Effect
The inhibitory effect of a test compound on human recombinant DGK ξ (Cama Biosciences, Inc., 12-410-20N) was examined by the following method in which detection is performed with ADP-Glo™ Kinase Assay (Promega Corporation).
To a 384-well plate (Greiner Bio-One Co., Ltd.), 3 μL of a DGK ξ enzyme dissolved in an assay buffer (40 mM Tris-HCl pH 7.5, 10 mM MgCl2, 1 mM dithiothreitol (DTT) and 0.1 mg/mL bovine serum albumin (BSA)) (90 ng/mL) was added, and 3 μL of the test compound diluted with the same assay buffer was added so that an intended final concentration was obtained. The mixture was left standing at room temperature for 15 minutes, 3 μL of a substrate (150 μM 1-oleoyl-2-acetyl-sn-glycerol (Sigma-Aldrich Co. LLC), 480 μM phosphatidylserine (Avanti, Inc.) and 150 μM UltraPure-ATP (attached to ADP-Glo)) was then added, and the mixture was left standing at room temperature for 30 minutes to react. Thereafter, 3 μL of an ADP-Glo Reagent was added, and the mixture was left standing at room temperature for 40 minutes to stop the enzyme reaction. Further, 6 μL of a Kinase-Detection Reagent was added, the mixture was left standing at room temperature for 30 minutes, and the luminescence was then measured using ARVO X3 (PerkinElmer, Inc.). The half maximal inhibitory concentration (IC50) was calculated by Sigmoid-Emax model non-linear regression analysis, where the signal value in solvent treatment was set to 0% inhibition and the signal value without addition of the DGK ξ enzyme was set to 100% inhibition. […] In the table. Ex represents the number of each Example described below.
A general note: In ADP-Glo the light output rises with the ADP produced.
Take `CN1CCN(c2c(NC(=O)c3ccn(CC(F)F)n3)ccc(Oc3ccc(F)cc3F)c2C(F)(F)F)C[C@@H]1CN` [Example 18]: the 50% inhibitory concentration (IC50) came to 130 nM.

Regarding `CNC[C@@H]1CN(c2c(NC(=O)c3ccn(-c4ccnnc4)n3)ccc(Oc3ccccc3Cl)c2C(F)(F)F)CCN1C` [Example 95], the IC50 came out at 3.8 nM.

With `NC[C@]1(F)CCCN(c2c(NC(=O)c3ccn(-c4ccnnc4)n3)ccc(Oc3ccccc3F)c2C(F)(F)F)C1` [Example 126, N-{2-[(3R)-3-(aminomethyl)-3-fluoropiperidin-1-yl]-4-(2-fluorophenoxy)-3-(trifluoromethyl)phenyl}-1-(pyridazin-4-yl)-1H-pyrazole-3-carboxamide monobutanedioate], the IC50 is 6.2 nM.

For the compound `NC[C@@H]1CCCN(c2c(NC(=O)c3ccn(C(F)F)n3)ccc(Oc3ccccc3)c2C(F)(F)F)C1` [Example 3], the half-maximal inhibitory concentration (IC50) was found to be 150 nM.

In the case of `NC[C@@H]1CCCN(c2c(NC(=O)c3ccn(CC(F)F)n3)ccc(Oc3ccccc3F)c2F)C1` [Example 6], the IC50 was found to be 57 nM.

For `NC[C@@H]1CCCN(c2c(NC(=O)c3ccn(CC(F)F)n3)ccc(OC3CCCC3)c2C(F)(F)F)C1` [Example 4], the half-maximal inhibitory concentration (IC50) was determined as 170 nM.

With `NCCOc1cc(-c2c(NC(=O)c3coc(-c4ccnnc4)n3)ccc(OC3CCC3)c2C(F)(F)F)ccn1` [Example 67], the IC50 is 35 nM.

In the case of `CN(C)C[C@H]1CN(c2c(NC(=O)c3coc(-c4ccnnc4)n3)ccc(Oc3ccccc3)c2C(F)(F)F)CCN1C` [Example 116], the IC50 came to 44 nM.

For `CN1CCN(c2c(NC(=O)c3cccn(CC(F)F)c3=O)ccc(Oc3ccccc3Cl)c2C(F)(F)F)C[C@@H]1CN` [Example 15], the IC50 was 99 nM.

On to `CN[C@@H]1CCN2CCN(c3c(NC(=O)c4coc(-c5ccnnc5)n4)ccc(Oc4ccccc4F)c3C(F)(F)F)C[C@@H]12` [Example 83], for which the IC50 amounted to 3.5 nM.

For the compound `CNC[C@H]1CN(c2c(NC(=O)c3ccn(-c4ccnnc4)n3)ccc(Oc3ccccc3Cl)c2C(F)(F)F)CCN1C` [Example 87], the IC50 was 4.1 nM.

As for `CNC[C@H]1CN(c2c(NC(=O)c3coc(-c4ccnnc4)n3)ccc(Oc3ccccc3F)c2C(F)(F)F)CCN1C` [Example 22, N-[4-(2-fluorophenoxy)-2-{(3S)-4-methyl-3-[(methylamino)methyl]piperazin-yl}-3-(trifluoromethyl)phenyl]-2-(pyridazin-4-yl)-1,3-oxazole-4-carboxamide trihydrochloride], the IC50 was 18 nM.

Turning to `CN1CCN(c2c(NC(=O)c3cccn(CC(F)F)c3=O)ccc(Oc3ccccc3F)c2C(F)(F)F)C[C@@H]1CN` [Example 16], the IC50 is 73 nM.

Turning to `CNC[C@H]1CN(c2c(NC(=O)c3coc(-c4ccnnc4)n3)ccc(Oc3ccccc3F)c2Cl)CCN1C` [Example 98], the IC50 is 7.5 nM.

Turning to `N[C@@H]1CCN2CCN(c3c(NC(=O)c4coc(-c5ccnnc5)n4)ccc(OC4CCC4)c3C(F)(F)F)C[C@@H]12` [Example 75], the IC50 was determined as 69 nM.

Regarding `NC[C@@H]1CCCN(c2c(NC(=O)c3ccn(-c4ccnnc4)n3)ccc(OC3CC3)c2-c2ccccc2)C1` [Example 63], the IC50 was found to be 70 nM.

For the compound `CN(C)[C@@H]1CCN2CCN(c3c(NC(=O)c4ccn(-c5ccnnc5)n4)ccc(Oc4ccccc4F)c3C(F)(F)F)C[C@@H]12` [Example 118], the IC50 was found to be 1.4 nM.

As to `N[C@@H]1CCN2CCN(c3c(NC(=O)c4ccn(-c5ccnnc5)n4)ccc(OC4CC4)c3C(F)(F)F)C[C@@H]12` [Example 82], the IC50 is 31 nM.

In the case of `CN(C)CCOc1cc(-c2c(NC(=O)c3coc(-c4ccnnc4)n3)ccc(OC3CCC3)c2C(F)(F)F)ccn1` [Example 113, N-[4-(cyclobutyloxy)-2-{2-[2-(dimethylamino)ethoxy]pyridin-4-yl}-3-(trifluoromethyl)phenyl]-2-(pyridazin-4-yl)-1,3-oxazole-4-carboxamide], the IC50 amounted to 21 nM.

For the compound `Cc1cc(C(=O)Nc2ccc(Oc3ccccc3)c(C(F)(F)F)c2N2CCC[C@@H](CN)C2)nn1-c1ccnnc1` [Example 35], the IC50 stood at 45 nM.

On to `CN1CCN(c2c(NC(=O)c3ccn(CC(F)F)n3)ccc(Oc3ccccc3F)c2Cl)C[C@@H]1CN` [Example 112, N-{2-[(3S)-3-(aminomethyl)-4-methylpiperazin-1-yl]-3-chloro-4-(2-fluorophenoxy)phenyl}-1-(2,2-difluoroethyl)-1H-pyrazole-3-carboxamide], for which the IC50 is 52 nM.

Regarding `Cc1cc(C(=O)Nc2ccc(Oc3ccccc3Cl)c(C(F)(F)F)c2N2CCC[C@@H](CN)C2)nn1-c1ccnnc1` [Example 91], the IC50 came out at 25 nM.

As for `NC[C@@H]1CCCN(c2c(NC(=O)c3ccn(-c4ccnnc4)n3)ccc(-c3ccccc3F)c2C(F)(F)F)C1` [Example 43], the IC50 stood at 30 nM.

Turning to `CNC[C@H]1CN(c2c(NC(=O)c3coc(-c4ccnnc4)n3)ccc(Oc3ccc(F)cc3)c2C(F)(F)F)CCN1C` [Example 102], the IC50 came to 210 nM.

`CNC[C@H]1CN(c2c(NC(=O)c3ccn(CC(F)F)n3)ccc(Oc3ccccc3F)c2C(F)(F)F)CCN1C` [Example 23]: the IC50 is 63 nM.

Turning to `COCCNC[C@@H]1CCCN(c2c(NC(=O)c3ccn(-c4ccnnc4)n3)ccc(Oc3ccccc3F)c2C(F)(F)F)C1` [Example 64], the IC50 came out at 13 nM.

Take `CN(C)[C@@H]1CCN2CCN(c3c(NC(=O)c4ccn(-c5ccnnc5)n4)ccc(OC4CC4)c3C(F)(F)F)C[C@@H]12` [Example 121]: the IC50 is 14 nM.

On to `O=C(Nc1ccc(Oc2ccccc2F)c(C(F)(F)F)c1N1CCC[C@@H](CNC2CC2)C1)c1ccn(CC(F)F)n1` [Example 10], for which the IC50 was determined as 93 nM.

On to `CNC[C@H]1CN(c2c(NC(=O)c3ccn(-c4ccnnc4)n3)ccc(Oc3ccc(F)cc3F)c2C(F)(F)F)CCN1C` [Example 96], for which the IC50 is 30 nM.

As to `CN[C@H]1CCN2CCN(c3c(NC(=O)c4ccn(-c5ccnnc5)n4)ccc(Oc4ccccc4F)c3C(F)(F)F)C[C@H]12` [Example 85], the IC50 turned out to be 5.2 nM.

On to `NC[C@@H]1CCCN(c2c(NC(=O)c3ccn(CC(F)(F)F)n3)ccc(Oc3ccccc3)c2C(F)(F)F)C1` [Example 109, N-{2-[(3S)-3-(aminomethyl)piperidin-1-yl]-4-phenoxy-3-(trifluoromethyl)phenyl}-1-(2,2,2-trifluoroethyl)-1H-pyrazole-3-carboxamide], for which the IC50 was 110 nM.

Consider `CN1CCN(c2c(NC(=O)c3ccn(-c4ccnnc4)n3)ccc(Oc3ccc(F)cc3)c2C(F)(F)F)C[C@@H]1CN` [Example 52], for which the IC50 is 46 nM.

With `CNC[C@H]1CN(c2c(NC(=O)c3ccn(CC(F)F)n3)ccc(Oc3ccccc3Cl)c2Cl)CCN1C` [Example 26], the IC50 is 19 nM.

For the compound `Cc1cn(-c2ccnnc2)nc1C(=O)Nc1ccc(Oc2ccccc2F)c(C(F)(F)F)c1N1CCC[C@@H](CN)C1` [Example 39], the IC50 is 39 nM.

In the case of `CNC[C@H]1CN(c2c(NC(=O)c3ccn(CC(F)F)n3)ccc(C3CCCC3)c2C(F)(F)F)CCN1C` [Example 14], the IC50 was found to be 150 nM.

Take `CN(C)[C@@H]1CCN2CCN(c3c(NC(=O)c4coc(-c5ccnnc5)n4)ccc(Oc4ccccc4)c3C(F)(F)F)C[C@@H]12` [Example 115]: the IC50 stood at 7.9 nM.

Consider `CN[C@@H]1CCN2CCN(c3c(NC(=O)c4coc(-c5ccnnc5)n4)ccc(Oc4ccccc4)c3C(F)(F)F)C[C@@H]12` [Example 76], for which the IC50 was 7.6 nM.

As to `CNC[C@H]1CN(c2c(NC(=O)c3coc(-c4ccnnc4)n3)ccc(Oc3ccccc3Cl)c2Cl)CCN1C` [Example 93], the IC50 came out at 2.8 nM.

`NC[C@@H]1CCCN(c2c(NC(=O)c3cccn(CC(F)(F)F)c3=O)ccc(Oc3ccccc3)c2C(F)(F)F)C1` [Example 110]: the IC50 worked out at 190 nM.

As to `CNC[C@H]1CN(c2c(NC(=O)c3ccn(CC(F)F)n3)cc(F)c(Oc3ccccc3)c2F)CCN1C` [Example 107], the IC50 was determined as 220 nM.

Regarding `CNC[C@H]1CN(c2c(NC(=O)c3ccn(CC(F)F)n3)ccc(Oc3ccccc3F)c2Cl)CCN1C` [Example 27], the IC50 was found to be 37 nM.

With `NC[C@@H]1CCCN(c2c(NC(=O)c3ccn(-c4ccnnc4)n3)ccc(Oc3ccccc3Cl)c2C(F)(F)F)C1` [Example 33], the IC50 worked out at 4.8 nM.

Take `N[C@@H]1CCN2CCN(c3c(NC(=O)c4ccn(-c5ccnnc5)n4)ccc(Oc4ccccc4F)c3C(F)(F)F)C[C@@H]12` [Example 77]: the IC50 was determined as 5.6 nM.

Regarding `NC[C@@H]1CCCN(c2c(NC(=O)c3ccn(-c4ccnnc4)n3)ccc(Oc3ccccn3)c2C(F)(F)F)C1` [Example 61], the IC50 is 46 nM.

For the compound `CNCCOc1cc(-c2c(NC(=O)c3coc(-c4ccnnc4)n3)ccc(OC3CC3)c2C(F)(F)F)ccn1` [Example 70], the IC50 stood at 55 nM.

As for `Cc1ccccc1Oc1ccc(NC(=O)c2ccn(-c3ccnnc3)n2)c(N2CCC[C@@H](CN)C2)c1C(F)(F)F` [Example 62], the IC50 turned out to be 6.9 nM.

In the case of `O=C(Nc1ccc(OC2CC2)c(C(F)(F)F)c1-c1cnn(C2CCNCC2)c1)c1ccn(-c2ccnnc2)n1` [Example 72], the IC50 came out at 62 nM.

Regarding `CN1CCN(c2c(NC(=O)c3ccn(-c4ccnnc4)n3)ccc(Oc3ccccc3F)c2C(F)(F)F)C[C@H]1CN` [Example 54], the IC50 was 12 nM.
